Results as given in PubChem BioAssay (NCI).
“And” between values parts separate entries of the source, which are not always exact repeats. Equal entries are not always repeated.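 1) Cells in 96-well plates. 2) Compound, 48 h, 5 concentrations. 3) Linear interpolation between surrounding doses. 4) Unreached endpoint = highest concentration. GI50 marks 50% less growth. TGI marks complete inhibition of growth.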

What was measured:
Assay in all cases: NCI-60 cell line screen, 48 h
M14 melanoma = tested on: M14 melanoma
SK-MEL-28 melanoma = tested on: SK-MEL-28 melanoma
TK-10 renal = tested on: TK-10 renal
MDA-MB-435 = tested on: MDA-MB-435
OVCAR-4 ovarian = tested on: OVCAR-4 ovarian
A498 renal = tested on: A498 renal
HL-60(TB) leukemia = tested on: HL-60(TB) leukemia
NCI-H23 lung = tested on: NCI-H23 lung
COLO 205 colon = tested on: COLO 205 colon
EKVX NSCLC = tested on: EKVX NSCLC
MCF7 breast = tested on: MCF7 breast

Row | Compound | TGI (M14 melanoma) [µM] | TGI (SK-MEL-28 melanoma) | TGI (TK-10 renal) [µM] | TGI (MDA-MB-435) [µM] | TGI (OVCAR-4 ovarian) | TGI (A498 renal) | TGI (HL-60(TB) leukemia) | TGI (NCI-H23 lung) | TGI (COLO 205 colon) | TGI (EKVX NSCLC) | TGI (MCF7 breast) | GI50 (SK-MEL-28 melanoma) [µM] | GI50 (OVCAR-4 ovarian) [µM] | GI50 (A498 renal) [µM] | GI50 (HL-60(TB) leukemia) [µM] | GI50 (NCI-H23 lung) [µM] | GI50 (COLO 205 colon) [µM] | GI50 (EKVX NSCLC) [µM] | GI50 (MCF7 breast) [µM]
1 | CCCC(=O)O[C@H]1C=C2C[C@@]34SS[C@]5(CC6=C[C@H](OC(C)=O)[C@@H]7O[C@@H]7[C@H]6N5C3=O)C(=O)N4[C@@H]2[C@H]2O[C@H]21 | 0.0545 | 0.235 µM | 0.24 | 0.0241 | 0.887 µM | 0.0697 µM | 2.71 µM | 0.291 µM | 0.0637 µM | 0.0294 µM | 0.226 µM |  |  |  |  |  |  |  | 
2 | CC(=O)NNc1nc(C)c(C(/C=C/c2ccc([N+](=O)[O-])cc2)=N/NC(N)=S)s1 | > 100 | > 100 µM | > 100 | > 100 | > 100 µM | > 100 µM | > 100 µM | > 100 µM | > 100 µM | > 100 µM | > 100 µM |  |  |  |  |  |  |  | 
3 | COc1cc(C2SC(N)=Nc3c2c(C)nn3C(=O)c2ccccc2O)ccc1O (stereo unspecified) | > 10 | > 10 µM | > 10 | > 10 | > 6.37 µM | > 10 µM | > 4.56 µM | > 10 µM | > 10 µM | > 10 µM | > 10 µM |  |  |  |  |  |  |  | 
4 | O=C1N2CCc3c([nH]c4ccccc34)C23CC2CCCCC12S3 (stereo unspecified) | > 100 | > 100 µM | > 100 | > 100 | > 100 µM | > 100 µM | > 100 µM | > 100 µM | > 100 µM | > 100 µM | > 100 µM |  |  |  |  |  |  |  | 
5 | C[C@]12Cc3cnn(-c4ccc(F)cc4)c3NC1CC[C@@H]1C2CC[C@@]2(C)C1CC[C@@H]2O (stereo partly specified) | 23.1 | 27.2 µM | 34 | 20.8 | 27.5 µM | 23 µM | 11.8 µM | 18.7 µM | 10.3 µM | 25.4 µM | 36.7 µM |  |  |  |  |  |  |  | 
6 | O=C(Cc1csc(N=Nc2c(O)[nH]c3ccccc23)n1)Nc1ccccc1 | > 100 | 46.5 µM | > 100 | > 100 | > 100 µM | > 100 µM | 94 µM | > 100 µM | > 100 µM | 52.8 µM | > 100 µM |  |  |  |  |  |  |  | 
7 | c1ccc(P(CCP(c2ccccn2)c2ccccn2)c2ccccc2)cc1 | > 100 | > 100 µM | > 100 | > 100 | > 100 µM | > 100 µM | 78.2 µM | > 100 µM | 37.8 µM | 9 µM | > 100 µM |  |  |  |  |  |  |  | 
8 | COc1cc(/C=C2/SC(c3ccccc3)N(c3ccccc3)C2=O)cc(OC)c1OC (stereo unspecified) | > 100 | > 100 µM | > 100 | > 100 | > 100 µM | > 100 µM | > 100 µM | > 100 µM | > 100 µM | > 100 µM | > 100 µM |  |  |  |  |  |  |  | 
9 | COC1C(O)C(C)OC(OC2C(Oc3cccc4c(O)c5c(=O)oc6ccc(C)c7c(=O)oc(c34)c5c67)OC(C)C(O)C2O)C1O (stereo unspecified) | 14.8 | 6.85 µM and 4.93 µM | 21 | 8.29 | 35.1 µM and 18.3 µM | 4.04 µM and 5.15 µM | 27.4 µM and 6.95 µM | 9.28 µM and 4.6 µM | 16 µM and 6.3 µM | 15.2 µM and 4.85 µM | 21.6 µM and 6.89 µM | 1.87 | 11.5 | 1.22 | 4.08 | 1.93 | 1.74 | 3.81 | 1.61
10 | CCCCOC(=O)NC(Nc1cccc(C(F)(F)F)c1)(C(F)(F)F)C(F)(F)F | > 100 | > 100 µM | > 100 | > 100 | > 100 µM | > 100 µM | 56.2 µM | > 100 µM | > 100 µM | > 100 µM | > 100 µM |  |  |  |  |  |  |  | 
11 | CN(C)Cc1cc(C(C)(C)C)ccc1-c1ccc(C(C)(C)C)cc1CN(C)C | > 100 | > 100 µM | > 100 | > 100 | > 100 µM | > 100 µM | > 100 µM | > 100 µM | > 100 µM | > 100 µM | > 100 µM |  |  |  |  |  |  |  | 
12 | COC(C(=O)C(O)C(C)O)C1CC2C=C3C=C(OC4CC(OC5CC(O)C(OC)C(C)O5)C(OC(C)=O)C(C)O4)C(C)C(=O)C3=C(O)C2=C(O)C1OC1CC(OC2CC(OC3CC(C)(O)C(OC(=O)C(C)C)C(C)O3)C(O)C(C)O2)C(O)C(C)O1 (stereo unspecified) | < 0.01 | < 0.01 µM | > 100 | < 0.01 | > 100 µM | < 0.01 µM | < 0.01 µM | < 0.01 µM | < 0.01 µM | < 0.01 µM | > 100 µM |  |  |  |  |  |  |  | 
13 | CC=CCOc1cc(NC(=S)OC(C)C)ccc1Cl (mixture of isomers) | 63.3 | 33.7 µM | 29.2 | 49.9 | 32.4 µM | 30.7 µM | 55.7 µM | 35.1 µM | 33.3 µM | 36.6 µM | 38.2 µM |  |  |  |  |  |  |  | 
14 | Cc1nc2c(nc1C)-c1c(c3c(n1C)C(=O)CCC3)C(=O)C2=O | 1.29 | 1.88 µM | 4.51 | 0.353 | 0.279 µM | 2.59 µM | 0.508 µM | 2.85 µM | 3.46 µM | 2.65 µM | 0.358 µM |  |  |  |  |  |  |  | 
15 | Nc1ncc(Cl)c(NCC2(CO)CC(CCc3ccccc3)C2)n1 (stereo unspecified) | > 100 | > 100 µM | > 100 | > 100 | > 100 µM | > 100 µM | > 100 µM | > 100 µM | > 100 µM | > 100 µM | > 100 µM |  |  |  |  |  |  |  | 
16 | O=C(Nc1c(C(F)(F)F)cc(-c2ccccc2)[nH]c1=O)N1CCOCC1 | > 100 | > 100 µM | > 100 | > 100 | > 100 µM | > 100 µM | 79.5 µM | > 100 µM | > 100 µM | > 100 µM | > 100 µM |  |  |  |  |  |  |  | 
17 | Cc1ccc2c(sc(-c3ccc4c(c3)sc(-c3ccc5c(c3)sc(-c3ccc(N(C)C)cc3)[n+]5C)[n+]4C)[n+]2C)c1S(=O)(=O)O (tested in a mixture with another compound) | > 100 | > 100 µM | > 100 | > 100 | > 100 µM | > 100 µM | > 100 µM | > 100 µM | > 100 µM | > 100 µM | > 100 µM |  |  |  |  |  |  |  | 
18 | Cc1ccc2c(n1)C(=O)C=CC2=O | 32.3 | 15.3 µM | 6.21 | 33 | 12.8 µM | 31.1 µM | > 22.5 µM | 30.6 µM | 4.95 µM | 15 µM | 53.8 µM |  |  |  |  |  |  |  | 
